Laboratory results published in patent publication US8633308B2, “Compounds for preventing or treating viral infections and methods of use thereof” (The Governors of The University of Alberta, priority 2007, dated 2014).
“And” between values parts separate entries of the source, which are not always exact repeats. Identical values can stand only once. “Also recorded” adds a separate entry of the source. Like-named read-outs stand apart in the source and are kept apart here.

What was measured:
[1] = test system: HSV-1 KOS; assay: HSV-1 infectivity plaque assay, virions pretreated with compound, Vero cells; assay type: cell-based, herpes simplex virus type 1; conditions: for potency compared with dUY11: infections of cultured cells
[2] = test system: Vero cells; assay: Cytotoxic/cytostatic effects, trypan blue exclusion cell counts; conditions: for cytotoxicity (in words): cultured cells
[3] = test system: HSV-1; assay: HSV-1 replication, cells treated only after infection with untreated virions; conditions: post-adsorption treatment of cells
Protocol: HSV-1 inocula were incubated at 37° C. for 0 or 5 minutes with 2 μM of dUY11 (left half of each panel) or with DMSO vehicle (right half of each panel). Vero cells were infected with 0.5; 5; 50; 500; 5,000; or 50,000 PFU of treated HSV-1, as indicated in the cartoon (top panel), washed and overlaid with Dulbecco's Modified Eagle Media (DMEM) supplemented with 5% fetal bovine serum (FBS) and 2% methylcellulose (MC).
Tests were performed to determine whether dUY11 preferentially targets the viral envelope or the cell membrane. […] HSV-1 KOS (200 PFU) were incubated with 0, 0.002, 0.007, 0.02, 0.07, 0.2, 0.7, 2, 7, 20 or 70 μM dUY11 for 5 minutes at 37° C. Vero cells were then infected with so-pretreated virions for 1 hour, washed and overlaid with medium supplemented with 5% FBS and 2% MC (▪). Alternatively, untreated inocula were used to infect untreated Vero cells (▴) or Vero cells pretreated at 37° C. for up to 60 minutes with 0, 2, 7, 20 or 70 μM dUY11 (●). Non-pretreated infected cells were then overlayed with medium supplemented with 5% FBS and 2% MC supplemented with 0, 2, 7, 20 or 70 μM dUY11. […] Error bars represent ranges of three or more experiments.

[4] = test system: HSV-2; assay: Mouse vaginal infection with HSV-2 virions exposed to compound; assay type: in vivo, mice
From the text: In order to determine whether an amphipathic nucleoside derivative described herein inhibited viral transmission, a model vaginal infection with a sexually transmitted virus, HSV-2, was used. […] All five mice infected with 3×10^3 infectious virions, and three of the mice infected with 10^3, had to be euthanized between days 7 and 9 due to advanced illness (FIGS. 18E and 19A-B).

[5] = test system: HSV-1 KOS; assay: HSV-1 infectivity plaque assay, pretreated virions, Human Foreskin Fibroblasts; assay type: cell-based, herpes simplex virus type 1; conditions: HFF
From the text: FIG. 8 is a line graph showing HSV-1 infectivity plotted against concentration of dUY11. […] As expected, dUY11 treated virions were equally non-infectious for Vero cells or Human Foreskin Fibroblasts.

[6] = test system: SIN virus; assay type: cell-based, Sindbis virus; conditions: virions pretreated 5 minutes at 37° C.; Vero cells; read-out: IC50, infectivity of SIN
[7] = test system: Vero cells
[8] = test system: HSV-1; assay: Release of HSV-1 DNA/virions by infected Vero cells, Southern blot of extracellular viral DNA; assay type: cell-based, herpes simplex virus type 1; conditions: 2 μM, 1, 5, 18, 24 hpi
[9] = test system: HSV-2 strain 186; assay type: cell-based, HSV type 2; conditions: virions pretreated 5 minutes at 37° C.; Vero cells; read-out: IC50, infectivity of HSV-2 strain 186
[10] = Dispersion and stability in culture medium; assay type: physicochemical
[11] = test system: HSV-1 KOS; assay: Binding of radiolabeled HSV-1 virions to Vero cells; assay type: cell-based, herpes simplex virus type 1; conditions: 7 μM; adsorption at 4° C. for 1 hour
Protocol: Infectivity was inhibited by pre-treating HSV-1 virions with the amphipathic nucleoside derivatives before infection. These nucleosides may thus inhibit HSV-1 infectivity by, for example, preventing virion binding to cells. Alternatively, they may disrupt extracellular virions (i.e. have virucidal activities). […] The binding of HSV-1 virions pre-treated with dUY11 was assessed. FIG. 11 is a bar graph and photographic images showing HSV-1 binding (A) and infectivity (B). In parallel studies, [35]S-Methionine radiolabeled (approximately 4×10^5 cpm in 2.5×10^5 PFU) (A) or non-radiolabeled HSV-1 KOS (B) were pretreated with no drug (white bar), 7 μM dUY11 (striped bar), or 100 μg/ml heparin (black bar) for 5 minutes at 37° C. The samples were then cooled on ice. Inocula were diluted (1:20, 1:100) in ice-cold serum-free media supplemented with no drug, 7 μM dUY11, or 100 μg/ml heparin. Vero cells were infected with the so-pretreated virions at 4° C. for 1 hour, washed three times with ice-cold serum-free medium and lysed. Bound virions were quantified by liquid scintillation. Error bars represent ranges of three experiments (A).

[12] = test system: HSV-1; assay: High-affinity binding of HSV-1 virions, heparin competition; assay type: cell-based, herpes simplex virus type 1; conditions: 7 μM
Protocol: dUY11 was next evaluated for its ability to affect high-affinity binding. FIG. 12 is a line graph showing competition of HSV-1 binding to cells by increasing concentration of heparin. […] Inocula were cooled on ice, and then diluted (1:10) in ice-cold serum-free media with or without 7 μM dUY11. Following 15 minute adsorption onto Vero cells, unbound virions were washed away. […] Virions stripped away by these washes were then quantified by liquid scintillation. Error bars represent ranges of two experiments. […] Therefore, the amphipathic nucleoside derivatives inhibit a step between high-affinity binding and viral DNA replication.

[13] = test system: HSV-2 strain 333; assay type: cell-based, HSV type 2; conditions: virions pretreated 5 minutes at 37° C.; Vero cells; read-out: IC50, infectivity of HSV-2 strain 333
[14] = test system: VSV; assay type: cell-based, vesicular stomatitis virus; conditions: virions pretreated 5 minutes at 37° C.; Vero cells; read-out: IC50, infectivity of VSV
[15] = test system: HSV-1 KOS; assay: Infectivity of progeny virions produced by treated infected Vero cells, plaque assay; assay type: cell-based, herpes simplex virus type 1
Protocol: Virions produced by cells infected and treated with said compounds after infection should therefore not be as infectious as virions produced by untreated cells. FIG. 16A is a line graph showing the reduction in infectivity of virions produced by cells treated with amphipathic nucleoside derivatives for 24 hours and plotted against drug concentration. Vero cells were infected with HSV-1 KOS at a multiplicity of infection (MOI) of 3 PFU/cell. […] Cells were harvested at 24 hpi and viral infectivity was evaluated by standard plaque assays. Error bars represent ranges of 3 or more experiments. The virions produced in the presence of dUY11 were 8 orders of magnitude less infectious than those produced by untreated cells (FIG. 16A). The experiments were then repeated, but limiting the exposure of the infected cells to dUY11 to only 1 hour, immediately after removing the viral inoculum (FIG. 16B). […] Infected cells were then incubated without drug for 22 h, then the infectivity of the progeny virions was assessed. […] Therefore, dUY11 interacts with pre-existing cellular factors that are incorporated into virions, such as membrane lipids.

[16] = test system: HSV-1 KOS; assay: HSV-1 infectivity, Vero cells pretreated with compound, untreated virions; assay type: cell-based, herpes simplex virus type 1; conditions: IC50 5.4 μM versus 20 nM
[17] = test system: HSV-1; assay: HSV-1 DNA replication, Southern blot of intracellular viral DNA in infected Vero cells; assay type: cell-based, herpes simplex virus type 1; conditions: 2 μM, 5 PFU/cell, 1, 5, 18, 24 hpi
Protocol: To identify whether the amphipathic nucleoside derivatives inhibited either viral DNA replication or viral gene expression, the ability of the amphipathic nucleoside derivatives to inhibit the accumulation of HSV-1 DNA was tested.

[18] = test system: HSV-1 KOS; assay: HSV-1 entry, RFP reporter under HSV-1 ICP0 IE promoter in Vero cells; assay type: cell-based, herpes simplex virus type 1; conditions: virions pretreated with 2 μM; 24 hpi
[19] = Human alphaherpesvirus 1, Vero, Table 1, read-out: IC50 (μM) on infectivity of HSV-1 on Vero cells
[20] = 10^3 or 3×10^3 HSV-2 virions exposed to 70 μM, vaginal infection

Q: What does the source list for `O=c1[nH]c(=O)n([C@@H]2O[C@H](CO)C(O)C2O)cc1C#Cc1ccc2c3cccc4cccc(c5cccc1c52)c43` (some centres unmarked) [aUY11, 5-(Perylen-3-ylethynyl)-arabino-uridine]?
A: IC50 [1, 19]: 0.075 µM; potency compared with dUY11 [1]: approximately as potent as dUY11; cytotoxicity (in words) [2]: neither were cytotoxic

Q: With `O=c1[nH]c(=O)n([C@H]2C[C@H](O)[C@@H](CO)O2)cc1C#Cc1ccc2c3cccc4cccc(c5cccc1c52)c43` [dUY11] as the compound, how does the “effect on viral replication when added after infection” value [3] read?
A: Its value is “no effect on viral replication; also recorded: no effect on HSV-1 replication”.

Q: And the “time to inhibit HSV-1 infectivity by 50%” value ([1]; 20 nM (IC50) at 37° C., Vero cells)?
A: The value was 220 s.

Q: What about the “infectivity with virions pretreated with 700 nM” value ([1]; 700 nM, Vero cells) of the same compound?
A: The value was “fully inhibited”.

Q: What about the “effect on viral infectivity, plaque assay” value ([1]; 2 μM, inocula incubated 0 or 5 min at 37° C.) of the same compound?
A: The value was “inhibits viral infectivity”.

Q: What about the “infectivity in parallel to binding study” value ([1]; 7 μM) of the same compound?
A: Its value is “did abrogate infectivity”.

Q: What about the IC50 ([1]; Table 1, read-out: IC50 (μM) on infectivity of HSV-1 on Vero cells) of the same compound?
A: Its IC50 is 0.05 µM.

Q: And the “maximum inhibition, virion pretreatment” value ([1]; up to 70 μM)?
A: Its value is 100%.

Q: And the IC50 ([1]; virions pretreated 5 minutes at 37° C., Vero cells, calculated graphically, read-out: IC50, HSV-1 infectivity)?
A: Its IC50 is 0.02 µM and 0.025 µM and 0.024 µM.

Q: And the “mice shedding detectable infectious virus” value [4, 20]?
A: Its value is “None of the ten mice”.

Q: And the “mice showing clinical signs of infection” value [4, 20]?
A: Its value is “None of the ten mice”.

Q: What about the “protection of mice from vaginal (genital) infection” value ([4]; virions exposed to 70 μM) of the same compound?
A: Its value is “protects mice from genital infection; also recorded: protects from vaginal infection with HSV-2; also recorded: non-infectious to mice”.

Q: What about the “infectivity with virions pretreated with 700 nM” value ([5]; 700 nM) of the same compound?
A: The value was “fully inhibited”.

Q: What about the IC50 ([5]; virions pretreated 5 minutes at 37° C.) of the same compound?
A: Its IC50 is 20 nM.

Q: And the IC50 [6]?
A: Its IC50 is 58 nM.

Q: And the “cytotoxicity (in words)” value [7]?
A: Its value is “non-cytotoxic”.

Q: And the “inhibition of release of HSV-1 DNA (extracellular viral DNA)” value [8]?
A: Its value is “does not inhibit the release of progeny HSV-1 DNA”.

Q: And the IC50 [9]?
A: Its IC50 is 49 nM.

Q: And the stability in medium ([10]; 150 μM)?
A: The stability in medium was “not stable in medium for long periods”.

Q: And the “concentration at which homogeneously dispersed in media” value ([10]; culture media)?
A: Its value is “up to 70,000 nM”.

Q: What about the “inhibition of HSV-1 virion binding to cells” value [11] of the same compound?
A: The value was “did not inhibit virion binding; also recorded: does not inhibit HSV-1 binding”.

Q: And the virucidal activity [12]?
A: Its virucidal activity is “not virucidal”.

Q: And the “block of low- or high-affinity binding” value ([12]; heparin washes 0 to 1,000 μg/ml)?
A: Its value is “does not block either low- or high-affinity binding; also recorded: does not block high-affinity binding”.

Q: What about the IC50 [13] of the same compound?
A: The IC50 was 65 nM.

Q: And the IC50 [14]?
A: Its IC50 is 6 nM.

Q: What about the “safety index (SI)” value ([2]; 50% cytotoxicity not reached) of the same compound?
A: The value was > 7,500.

Q: And the IC50 ([15]; cells exposed for only 1 hour)?
A: The IC50 was 3900 nM.

Q: And the “reduction in infectivity of virions budded from treated cells” value ([15]; cells exposed for only 1 hour after removing inoculum)?
A: Its value is 6 orders of magnitude.

Q: And the “effect on infectivity of progeny virions (in words)” value ([15]; cells treated for 24 or only 1 hours)?
A: Its value is “inhibits the infectivity of progeny virions”.

Q: And the “reduction in infectivity of virions produced by treated cells” value ([15]; cells treated for 24 hours after infection, up to 2 μM)?
A: Its value is 8 orders of magnitude.

Q: And the “fold higher concentration for cell pretreatment versus virion pretreatment” value [16]?
A: The value was 270 fold.

Q: What about the “inhibition of HSV-1 DNA replication (intracellular viral DNA)” value [17] of the same compound?
A: The value was “does not inhibit HSV-1 DNA replication; also recorded: does not inhibit viral DNA replication at any time tested”.

Q: And the “HSV-1 entry (RFP expression in reporter cells)” value [18]?
A: The value was “no detectable fluorescence; also recorded: inhibits HSV-1 entry”.

Q: With `O=c1[nH]c(=O)n([C@H]2CC[C@@H](CO)O2)cc1C#Cc1ccc2c3cccc4cccc(c5cccc1c52)c43` [ddUY11, 5-(Perylen-3-ylethynyl)-2′,3′-dideoxyuridine] as the compound, how does the IC50 [1, 19] read?
A: Its IC50 is 0.045 µM.

Q: And the “potency compared with dUY11” value [1]?
A: Its value is “approximately as potent as dUY11”.

Q: What about the “cytotoxicity (in words)” value [2] of the same compound?
A: Its value is “neither were cytotoxic”.
